Test [1] has as its target T1, GL‐261‐mTDO (Mus musculus, UniProt P48776).
T1 construct: stably overexpressing the full‐length mouse TDO2 cDNA (GL‐261‐mTDO); expressed in transfected cells; host or cells: GL-261
Description: Cell-based TDO assay, GL‐261‐mTDO cells (pDMAB).

For test [2], the system named is rotenone‐induced mouse model of PD. As to the kind of experiment: TH‐positive (dopaminergic) cells in substantia nigra, iDISCO. It counts as in vivo, male C57BL/6NCrl mice. Particulars: rotenone mice, P < 0.01.
The test system of test [3] is constitutively TDO‐expressing human glioblastoma A172 cell line. On the set-up: method as in PMID 31806638. To be noted: cited from earlier work.
The test system of test [4] is hTDO‐overexpressing HEK‐293 cells. Also noted: method as in PMID 22308364. Particulars: originally reported; cited from earlier work.
Test [5] has as its system rotenone‐induced mouse model of PD. As to the kind of experiment: GFAP immunofluorescent staining of colon in rotenone model. It counts as in vivo, male C57BL/6NCrl mice. Particulars: rotenone mice. The procedure:
Parkinson’s disease is associated with the activation of glial cells in the enteric nervous system. Furthermore, aggregates of α‐synuclein have been observed in the enteric nervous system of PD patients. The expression of glial fibrillary acidic protein (GFAP), a marker of enteric glial cells, and of α‐synuclein was determined by immunofluorescent staining of fixed sections of the colons of the sacrificed mice.
Expression of GFAP and α‐synuclein in colonic tissue was determined using confocal microscopy (Leica SP8). The colons of the mice were embedded in paraffin. Sections of 15 µm were cut and incubated with 0.3% (v/v) H2O2 for 30 min, rehydrated and incubated with citrate buffer. Following blocking with serum, the sections were incubated overnight with rabbit anti‐α‐synuclein (Millipore, cat. no. AB5038; Burlington, MA, USA) at a dilution of 1 : 1000, or rabbit anti‐GFAP (Dako, cat. no. Z0334), 1 : 1000. After incubation with Alexa® 488‐labeled donkey anti‐rabbit secondary antibody, the slides were mounted using Vectashield® medium for fluorescence with DAPI (Vector Laboratories, cat. no. H‐1000; Burlingame, CA, USA).
Immunofluorescence images were made using a Keyence BZ‐9000 microscope. GFAP and α‐synuclein staining were quantified by calculation of the corrected total fluorescence (CTF) with the formula: integrated density – (area × mean fluorescence of background reading).

Test [6] shares this test system. As to the kind of experiment: Rotarod test in rotenone model. In kind it is in vivo, male C57BL/6NCrl mice. The procedure:
To investigate the effects of TDO inhibition, both compounds were orally administered once daily from day 7 after induction of the PD model (Fig. 5A). […] In this test, the time spent on an accelerating wheel was used to analyze motor function.
Food and water was provided ad libitum.
Motor function was assessed in the rotarod test by placing mice on an accelerating rod with speeds starting at 2 rpm and gradually increasing to 20 rpm. The latency to fall was recorded for a maximum of 300 s. Baseline motor function was tested seven days after surgery, and subsequently, motor function was tested every seven days until day 42.
On the technique in general: Falling from the rotarod earlier than controls is read as motor impairment.

Test [7] shares this test system. As to the kind of experiment: Intestinal transit of Evans blue in rotenone model. It counts as in vivo, male C57BL/6NCrl mice. To be noted: P < 0.0001. The procedure:
The dye was injected intragastrically, thirty minutes before the sacrifice of the mice. Intestinal transit was measured as the distance travelled by the dye from the pylorus to the most distal part of the colon.

Test [8] concerns the target T2, recombinant human TDO (hTDO) (Homo sapiens, UniProt P48775).
Test [9] deals with T2, recombinant human TDO (hTDO). As to the kind of experiment: biochemical.
Test [10] has as its target CYP1A2 (Homo sapiens, UniProt P05177). As to the kind of experiment: CYP enzyme panel. It counts as biochemical. The text has this:
(§1) Since TDO contains a heme center, similar to cytochrome P450 (CYP) enzymes, we evaluated the selectivity of NTRC 3531‐0 on a panel of seven CYP enzymes, that is, CYP1A2, CYP2B6, CYP2C8, CYP2C9, CYP2C19, CYP2D6, and CYP3A4.

In test [11] the target is CYP2C8 (Homo sapiens, UniProt P10632). Description: CYP enzyme panel. In kind it is biochemical.
Excerpt: as §1

Test [12] has as its target CYP2C19 (Homo sapiens, UniProt P33261). Description: CYP enzyme panel. It counts as biochemical.
Excerpt: as §1

The target in test [13] is CYP2C9 (Homo sapiens, UniProt P11712). Description: CYP enzyme panel. In kind it is biochemical.
Excerpt: as §1

The target of test [14] is CYP2B6 (Homo sapiens, UniProt P20813). As to the kind of experiment: CYP enzyme panel. In kind it is biochemical.
Excerpt: as §1

The target in test [15] is CYP2D6 (Homo sapiens, UniProt P10635). Description: CYP enzyme panel. In kind it is biochemical.
Excerpt: as §1

The target in test [16] is CYP3A4 (Homo sapiens, UniProt P08684). Description: CYP enzyme panel. In kind it is biochemical.
Excerpt: as §1

Setting [17] is: two highest doses (25 and 50 mg·kg^−1).

T1 sequence (P48776 whole entry): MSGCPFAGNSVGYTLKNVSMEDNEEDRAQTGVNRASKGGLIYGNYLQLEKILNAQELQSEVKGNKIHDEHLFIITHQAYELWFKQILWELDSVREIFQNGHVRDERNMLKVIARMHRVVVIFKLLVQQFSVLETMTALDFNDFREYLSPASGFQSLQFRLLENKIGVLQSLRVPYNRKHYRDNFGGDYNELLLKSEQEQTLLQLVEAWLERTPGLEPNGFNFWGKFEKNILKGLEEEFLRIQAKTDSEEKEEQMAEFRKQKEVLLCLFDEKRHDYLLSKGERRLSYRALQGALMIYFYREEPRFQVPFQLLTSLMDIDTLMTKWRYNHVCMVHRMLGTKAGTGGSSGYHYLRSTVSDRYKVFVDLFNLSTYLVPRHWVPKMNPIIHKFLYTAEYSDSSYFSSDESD
T2 sequence (P48775 whole entry): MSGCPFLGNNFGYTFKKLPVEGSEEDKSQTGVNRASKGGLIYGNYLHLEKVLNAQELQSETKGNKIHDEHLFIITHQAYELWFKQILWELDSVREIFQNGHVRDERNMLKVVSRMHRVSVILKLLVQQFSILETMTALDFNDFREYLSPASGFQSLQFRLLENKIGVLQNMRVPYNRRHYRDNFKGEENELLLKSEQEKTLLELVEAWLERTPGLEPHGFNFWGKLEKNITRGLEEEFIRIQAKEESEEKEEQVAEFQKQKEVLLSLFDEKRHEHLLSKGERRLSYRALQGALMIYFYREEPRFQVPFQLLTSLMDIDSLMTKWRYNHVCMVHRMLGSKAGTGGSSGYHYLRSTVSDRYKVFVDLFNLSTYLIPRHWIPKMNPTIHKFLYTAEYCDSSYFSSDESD
Sequence of CYP3A4 (P08684 whole entry): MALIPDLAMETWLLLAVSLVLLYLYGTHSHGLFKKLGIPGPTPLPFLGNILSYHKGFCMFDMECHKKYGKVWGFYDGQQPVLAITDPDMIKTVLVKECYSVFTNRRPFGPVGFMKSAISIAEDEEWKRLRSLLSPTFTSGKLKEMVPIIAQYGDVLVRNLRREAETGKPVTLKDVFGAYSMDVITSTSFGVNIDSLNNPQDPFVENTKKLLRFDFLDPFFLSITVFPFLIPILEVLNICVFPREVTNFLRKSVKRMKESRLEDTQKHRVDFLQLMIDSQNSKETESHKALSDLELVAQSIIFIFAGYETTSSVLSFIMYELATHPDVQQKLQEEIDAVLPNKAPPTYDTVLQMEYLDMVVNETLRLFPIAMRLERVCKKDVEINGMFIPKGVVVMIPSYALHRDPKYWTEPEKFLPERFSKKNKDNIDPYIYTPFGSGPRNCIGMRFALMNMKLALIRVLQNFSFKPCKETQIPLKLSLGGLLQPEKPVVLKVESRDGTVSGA
Sequence of CYP2C8 (P10632 whole entry): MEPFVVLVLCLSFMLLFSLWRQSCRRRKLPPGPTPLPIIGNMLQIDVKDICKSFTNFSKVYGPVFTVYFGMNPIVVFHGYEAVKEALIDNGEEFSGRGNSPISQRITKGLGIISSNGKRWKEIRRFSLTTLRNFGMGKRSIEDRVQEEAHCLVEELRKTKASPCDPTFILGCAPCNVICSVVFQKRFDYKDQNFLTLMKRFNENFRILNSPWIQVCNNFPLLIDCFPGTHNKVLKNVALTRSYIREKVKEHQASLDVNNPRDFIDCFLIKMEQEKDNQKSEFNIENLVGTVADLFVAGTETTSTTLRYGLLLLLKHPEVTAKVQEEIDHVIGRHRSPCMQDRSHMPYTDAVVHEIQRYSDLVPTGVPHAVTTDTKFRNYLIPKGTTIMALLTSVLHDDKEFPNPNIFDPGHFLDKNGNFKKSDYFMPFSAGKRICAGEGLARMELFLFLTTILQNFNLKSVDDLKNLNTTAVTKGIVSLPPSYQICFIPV
Sequence of CYP2B6 (P20813 whole entry): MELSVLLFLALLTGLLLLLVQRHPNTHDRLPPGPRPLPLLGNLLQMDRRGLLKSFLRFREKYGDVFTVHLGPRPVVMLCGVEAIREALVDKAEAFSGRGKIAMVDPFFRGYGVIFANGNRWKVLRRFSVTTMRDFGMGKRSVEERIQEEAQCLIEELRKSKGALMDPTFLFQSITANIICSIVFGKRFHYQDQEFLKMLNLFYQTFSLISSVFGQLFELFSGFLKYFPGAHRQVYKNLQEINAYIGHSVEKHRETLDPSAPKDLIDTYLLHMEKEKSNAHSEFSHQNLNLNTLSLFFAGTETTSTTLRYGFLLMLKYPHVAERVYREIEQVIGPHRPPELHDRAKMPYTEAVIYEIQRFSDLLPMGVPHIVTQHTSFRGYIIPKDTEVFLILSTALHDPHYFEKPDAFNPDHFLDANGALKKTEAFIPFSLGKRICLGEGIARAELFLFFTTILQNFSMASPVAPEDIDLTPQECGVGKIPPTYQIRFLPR
Sequence of CYP2C19 (P33261 whole entry): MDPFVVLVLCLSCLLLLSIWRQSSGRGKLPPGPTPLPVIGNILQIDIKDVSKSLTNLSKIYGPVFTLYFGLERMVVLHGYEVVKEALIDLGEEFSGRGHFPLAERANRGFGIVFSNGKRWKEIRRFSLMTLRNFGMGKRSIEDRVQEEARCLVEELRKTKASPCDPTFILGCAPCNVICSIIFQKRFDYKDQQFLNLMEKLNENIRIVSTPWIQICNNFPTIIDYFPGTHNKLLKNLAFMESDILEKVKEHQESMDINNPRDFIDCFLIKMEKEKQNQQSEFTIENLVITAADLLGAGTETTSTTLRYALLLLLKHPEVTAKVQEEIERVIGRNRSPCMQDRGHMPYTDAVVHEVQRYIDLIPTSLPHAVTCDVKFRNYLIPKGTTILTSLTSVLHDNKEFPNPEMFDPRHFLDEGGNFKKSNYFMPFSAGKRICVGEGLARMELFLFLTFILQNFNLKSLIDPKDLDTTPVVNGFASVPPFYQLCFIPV
Sequence of CYP1A2 (P05177 whole entry): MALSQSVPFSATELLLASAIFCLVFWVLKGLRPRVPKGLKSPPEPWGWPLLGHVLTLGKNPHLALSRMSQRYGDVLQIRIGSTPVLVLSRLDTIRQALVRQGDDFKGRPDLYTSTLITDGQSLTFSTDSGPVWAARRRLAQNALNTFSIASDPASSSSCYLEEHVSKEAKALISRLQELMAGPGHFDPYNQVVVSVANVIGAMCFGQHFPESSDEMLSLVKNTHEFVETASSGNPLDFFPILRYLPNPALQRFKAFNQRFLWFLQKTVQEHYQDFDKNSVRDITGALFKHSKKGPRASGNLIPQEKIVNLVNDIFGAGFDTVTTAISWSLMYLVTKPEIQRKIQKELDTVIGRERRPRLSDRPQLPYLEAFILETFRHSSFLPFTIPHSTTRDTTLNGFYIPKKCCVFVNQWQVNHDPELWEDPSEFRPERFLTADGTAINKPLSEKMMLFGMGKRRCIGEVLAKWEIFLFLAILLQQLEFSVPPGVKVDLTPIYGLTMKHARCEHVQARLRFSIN
Sequence of CYP2C9 (P11712 whole entry): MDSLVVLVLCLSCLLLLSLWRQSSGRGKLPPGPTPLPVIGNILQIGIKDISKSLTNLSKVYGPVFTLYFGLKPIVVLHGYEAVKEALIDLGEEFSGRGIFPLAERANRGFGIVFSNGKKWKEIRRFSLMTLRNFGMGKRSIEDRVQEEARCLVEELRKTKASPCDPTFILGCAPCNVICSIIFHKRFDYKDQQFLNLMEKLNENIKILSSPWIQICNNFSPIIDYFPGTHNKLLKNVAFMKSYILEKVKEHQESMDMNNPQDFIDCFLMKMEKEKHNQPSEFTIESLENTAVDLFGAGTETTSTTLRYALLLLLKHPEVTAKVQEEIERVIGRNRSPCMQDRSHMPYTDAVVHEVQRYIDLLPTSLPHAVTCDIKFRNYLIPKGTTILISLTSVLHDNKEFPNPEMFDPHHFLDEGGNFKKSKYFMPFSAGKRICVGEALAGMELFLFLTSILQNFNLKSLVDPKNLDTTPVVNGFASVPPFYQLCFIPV
Sequence of CYP2D6 (P10635 whole entry): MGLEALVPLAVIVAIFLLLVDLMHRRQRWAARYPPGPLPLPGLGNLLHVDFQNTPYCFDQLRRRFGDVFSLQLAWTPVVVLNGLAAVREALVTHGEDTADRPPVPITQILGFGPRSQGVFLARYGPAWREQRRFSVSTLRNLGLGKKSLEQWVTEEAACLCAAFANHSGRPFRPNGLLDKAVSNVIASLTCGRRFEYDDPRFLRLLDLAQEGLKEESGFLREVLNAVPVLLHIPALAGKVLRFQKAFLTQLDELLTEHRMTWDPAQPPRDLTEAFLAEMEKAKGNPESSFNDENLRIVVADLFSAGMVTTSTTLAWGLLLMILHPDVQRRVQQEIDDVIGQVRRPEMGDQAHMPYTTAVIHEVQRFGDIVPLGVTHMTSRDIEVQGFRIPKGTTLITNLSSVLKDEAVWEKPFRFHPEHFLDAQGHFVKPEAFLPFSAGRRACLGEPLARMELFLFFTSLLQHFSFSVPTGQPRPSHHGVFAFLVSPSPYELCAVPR

As usually defined, the inhibition is the relative decrease from the control value, in per cent. What is called IC50 is the concentration that inhibits the measured activity by half. For the compound `Fc1ccc2c(/C=C/c3nnn[nH]3)c[nH]c2c1` [LM10, reference compound], the inhibition at 0.6 µM in [1] (read-out: inhibition GL‐261‐mTDO) is 42%. For the same compound, the “rotenone‐induced loss of TH‐positive cells in the SN” value in [2] (setting [17]) is “decreased the rotenone‐induced loss of TH‐positive cells”. For the same compound, in [3], the IC50 was 24 µM. In test [4], the “potency in hTDO‐overexpressing HEK‐293 cells” value was “high‐nanomolar potent inhibitor”. Moreover, in test [5] (highest two doses: 25 mg·kg^−1, P < 0.001, 50 mg·kg^−1, P < 0.0001), the “GFAP staining in colon” value is listed as “decrease of GFAP staining”. For the same compound, the “motor function (rotarod) of rotenone‐treated mice” value in test [6] (highest dose p.o. once daily: 50 mg·kg^−1, P < 0.05) is given as “significantly improved motor function”. Besides, the “intestinal transit of the PD mice” value in test [7] (setting [17]) was “improved the intestinal transit”.
As for `C[C@@H](CO)NC(=O)c1ccc(-c2c[nH]c3cc(F)ccc23)cc1` [NTRC 3531‐0], the concentration for half-maximal inhibition (IC50) was 214 nM in test [1]; 490 nM in test [9]; above 31.6 µM in test [10]; 16.3 µM in test [11]; above 31.6 µM in [12]; above 31.6 µM in [13]. The 50% inhibitory concentration (IC50) in test [14], in test [15] and in test [16] was above 31.6 µM in each case. Also, in test [2] (highest dose (100 mg·kg^−1)), the “rotenone‐induced loss of TH‐positive cells in the SN” value is reported as “decreased the rotenone‐induced loss of TH‐positive cells”. In addition, the “selectivity for hTDO over hIDO1, biochemical assays” value in test [8] is “more than 60 times”. The “GFAP staining in colon” value in [5] (highest two doses (50 and 100 mg·kg^−1), P < 0.0001 for both doses) was “decrease of GFAP staining”. Besides, in test [6] (two highest doses p.o. once daily: 50 mg·kg^−1, P < 0.01 at day 35, 100 mg·kg^−1, P < 0.01), the “motor function (rotarod) of rotenone‐treated mice” value is “significantly improved motor function”. The “intestinal transit of the PD mice” value in test [7] (highest dose (100 mg·kg^−1)) was “improved the intestinal transit”.
